Laboratory results taken from US20130164259A1, “1,4-S[…] DERIVATIVES AND METHODS OF USE THEREOF” (priority 2009, published 2013).

These compounds were tested against T1, HCV NS5B polymerase (NS5BΔCT21) (Hepatitis C virus genotype 1b, UniProt Q9WMX2) (assay: HCV NS5B Polymerase Inhibition Assay).
T1 construct: A soluble C-terminal 21-amino acid truncated NS5B enzyme form; polyhistidine (C); made in house; host or cells: Escherichia coli
Format: biochemical, HCV-Con 1 isolate
Excerpt: A chemically synthesized 75-mer version, designated DCoH75, whose sequence matches the 3′-end of D-RNA, and DCoH75ddC, where the 3′-terminal cytidine of DCoH75 is replaced by dideoxycytidine, were used for assaying the NS5B enzyme activity as described in Ferrari et al., 12th International Symposium on HCV and Related Viruses, P-306 (2005). The sequence of the template RNA was: 5′-UGUGCCGGUCUUUCUGAACGGGAUAUAAACCUGGCCAGCUUCAUCGAACAAGUUGCCGUGUCUAUGACAUAGAUC-3′ (SEQ ID NO: 1). A soluble C-terminal 21-amino acid truncated NS5B enzyme form (NS5BΔCT21, from HCV-Con 1 isolate, genotype 1b, Genbank accession number AJ238799) was produced and purified from Escherichia coli as C-terminal polyhistidine-tagged fusion protein as described in Ferrari et al., J. Virol. 73:1649-1654 (1999). A typical assay contained 20 mM Hepes pH 7.3, 10 mM MgCl2, 60 mM NaCl, 100 μg/ml BSA, 20 units/ml RNasin, 7.5 mM DTT, 0.1 μM ATP/GTP/UTP, 0.026 μM CTP, 0.25 mM GAU, 0.03 μM RNA template, 20 μCi/ml [^33P]-CTP, 2% DMSO, and 30 or 150 nM NS5B enzyme. Reactions were incubated at 22° C. for 2 hours, then stopped by adding 150 mM EDTA, washed in DE81 filter plate in 0.5M di-basic sodium phosphate buffer, pH 7.0, and counted using Packard TopCount after the addition of scintillation cocktail. Polynucleotide synthesis was monitored by the incorporation of radiolabeled CTP. The effect of the Compounds of Formula (I) on the polymerase activity was evaluated by adding various concentrations of a Compound of Formula (I), typically in 10 serial 2-fold dilutions, to the assay mixture. The starting concentrations ranged from 200 μM to 1 μM. An IC50 value for the inhibitor, defined as the compound concentration that provides 50% inhibition of polymerase activity, was determined by fitting the cpm data to the Hill equation Y=100/(1+10̂((LogIC50−X)*HillSlope)), where X is the logarithm of compound concentration, and Y is the % inhibition. Ferrari et al., 12th International Symposium on HCV and Related Viruses, P-306 (2005) described in detail this assay procedure. It should be noted that such an assay as described is exemplary and not intended to limit the scope of the invention. The skilled practitioner can appreciate that modifications including but not limited to RNA template, primer, nucleotides, NS5B polymerase form, buffer composition, can be made to develop similar assays that yield the same result for the efficacy of the compounds and compositions described in the invention.
NS5B polymerase inhibition data was calculated for the compounds of the present invention using this method and is set forth in the table below.

O=C(Nc1ccc(C2CC2)cc1N1CCN(c2cnccn2)CC1)c1cccnc1 [Compound 66] and O=C(Nc1ccc(I)cc1N1CCN(c2cnccn2)CC1)c1cccnc1 [Compound 70] are within 1.5-fold of each other in IC50: 12 µM for the first, 13 µM for the second.

Going from CC(C)c1ccc(NC(=O)c2cccnc2N)c(N2CCN(c3cnccn3)CC2)c1 [Compound 8] to CC(C)c1ccc(NC(=O)c2cccnc2F)c(N2CCN(c3cnccn3)CC2)c1 [Compound 6], the IC50 rises from 1 µM to 2.2 µM (2.2-fold).

Going from CC(C)c1ccc(NC(=O)c2cnc3[nH]ccc3c2)c(N2CCN(c3cnccn3)CC2)c1 [Compound 24] to CC(C)c1ccc(NC(=O)c2cnc3ccccc3c2)c(N2CCN(c3cnccn3)CC2)c1 [Compound 19], the IC50 falls from > 20 µM to 6.7 µM.

Compared with Cc1c(F)ccc(F)c1C(=O)Nc1ccc(C(C)C)cc1N1CCN(c2cnccn2)CC1 [Compound 15], Cc1c(F)cc(C(=O)Nc2ccc(C(C)C)cc2N2CCN(c3cnccn3)CC2)cc1F [Compound 16] is 9.6-fold lower in IC50: 54 µM for the first, 5.6 µM for the second. The second is the more potent here.

Going from Cc1ccnc(N2CCN(c3cc(C(C)C)ccc3NC(=O)c3cccnc3)CC2)n1 [Compound 44] to CC(C)c1ccc(NC(=O)c2cccnc2)c(N2CCN(c3ncccn3)CC2)c1 [Compound 43], the IC50 rises from 1.5 µM to 2.3 µM (1.5-fold). The first is the more potent here.

Going from CC(C)c1ccc(NC(=O)c2ccccn2)c(N2CCN(c3cnccn3)CC2)c1 [Compound 33] to CC(C)c1ccc(NC(=O)c2cccnc2O)c(N2CCN(c3cnccn3)CC2)c1 [Compound 10], the IC50 falls from > 20 µM to 3 µM.

First: O=C(Nc1ccc(C(F)(F)F)cc1N1CCN(c2cnccn2)CC1)c1cccnc1 [Compound 68]
Second: CC(C)(C)c1ccc(NC(=O)c2cccnc2)c(N2CCN(c3cnccn3)CC2)c1 [Compound 63]
The IC50 of the first is higher: > 20 µM for the first, 3 µM for the second. The second is the more potent here.

CC(C)c1ccc(NC(=O)c2cccnc2)c(N2CCN(C(=O)CN(C)C)CC2)c1 [Compound 55] and CNCC(=O)N1CCN(c2cc(C(C)C)ccc2NC(=O)c2cccnc2)CC1 [Compound 56] cannot be ordered by IC50: > 200 µM for the first, > 200 µM for the second.

First: Cc1cncc(C(=O)Nc2ccc(C(C)C)cc2N2CCN(c3cnccn3)CC2)c1 [Compound 18]
Second: CC(C)c1ccc(NC(=O)c2cncnc2)c(N2CCN(c3cnccn3)CC2)c1 [Compound 34]
The IC50 of the first is lower: 2.3 µM for the first, > 20 µM for the second. The first is the more potent here.

Going from Cc1ncccc1C(=O)Nc1ccc(C(C)C)cc1N1CCN(c2ncnc3ccsc23)CC1 [Compound 59] to Cc1ncccc1C(=O)Nc1ccc(C(C)C)cc1N1CCN(c2ncnc3[nH]ccc23)CC1 [Compound 60], the IC50 rises from 0.014 µM to 0.032 µM (2.3-fold). The first is the more potent here.

Going from Cc1nc(N(C)C)sc1C(=O)Nc1ccc(C(C)C)cc1N1CCN(c2cnccn2)CC1 [Compound 22] to Cc1nc(Br)sc1C(=O)Nc1ccc(C(C)C)cc1N1CCN(c2cnccn2)CC1 [Compound 21], the IC50 falls from 10 µM to 3 µM (3.3-fold).

First: Cc1csc(N2CCN(c3cc(C(C)C)ccc3NC(=O)c3cccnc3)CC2)n1 [Compound 48]
Second: Cc1cnc(N2CCN(c3cc(C(C)C)ccc3NC(=O)c3cccnc3)CC2)s1 [Compound 49]
The IC50 of the first is 3.8-fold higher: 15 µM for the first, 3.9 µM for the second. The second is the more potent here.

First: CC(C)c1ccc(NC(=O)c2cccnc2C(F)(F)F)c(N2CCN(c3cnccn3)CC2)c1 [Compound 7]
Second: Cc1ncccc1C(=O)Nc1ccc(C(C)C)cc1N1CCN(c2cnccn2)CC1 [Compound 2]
The IC50 of the first is 4.4-fold higher: 2.3 µM for the first, 0.52 µM for the second.

Going from O=C(Nc1ccc(-c2ccccc2)cc1N1CCN(c2cnccn2)CC1)c1cccnc1 [Compound 67] to O=C(Nc1ccc(Br)cc1N1CCN(c2cnccn2)CC1)c1cccnc1 [Compound 65], the IC50 rises from 8 µM to > 20 µM. The first is the more potent here.

First: Cc1ncccc1C(=O)Nc1ccc(C(C)C)cc1N1CCN(c2ccncn2)CC1 [Compound 57]
Second: COc1ncccc1C(=O)Nc1ccc(C(C)C)cc1N1CCN(c2cnccn2)CC1 [Compound 11]
The IC50 of the first is lower: 0.1 µM for the first, > 20 µM for the second. The first is the more potent here.

Going from Cc1nocc1C(=O)Nc1ccc(C(C)C)cc1N1CCN(c2cnccn2)CC1 [Compound 38] to Cc1n[nH]cc1C(=O)Nc1ccc(C(C)C)cc1N1CCN(c2cnccn2)CC1 [Compound 39], the IC50 rises from 13 µM to > 200 µM.

First: CC(C)c1ccc(NC(=O)c2cccc(F)c2)c(N2CCN(c3cnccn3)CC2)c1 [Compound 12]
Second: CC(C)c1ccc(NC(=O)c2cccnc2)c(N2CCN(c3cnccn3)CC2)c1 [Compound 1]
The IC50 of the first is 3-fold lower: 1 µM for the first, 3 µM for the second.

Going from CC(C)c1ccc(NC(=O)c2ccc(C(F)(F)F)nc2)c(N2CCN(c3cnccn3)CC2)c1 [Compound 25] to Cc1ccc(C(=O)Nc2ccc(C(C)C)cc2N2CCN(c3cnccn3)CC2)cn1 [Compound 17], the IC50 rises from 2.3 µM to 14 µM (6.1-fold). The first is the more potent here.

Compared with Cc1ncccc1C(=O)Nc1ccc(C(C)C)cc1N1CCN(c2cncc(C3CC3)n2)CC1 [Compound 61], CC(C)c1ccc(NC(=O)c2cccnc2C2CC2)c(N2CCN(c3cnccn3)CC2)c1 [Compound 3] is 2-fold higher in IC50: 1 µM for the first, 2 µM for the second.

Compared with Cc1ncsc1C(=O)Nc1ccc(C(C)C)cc1N1CCN(c2cnccn2)CC1 [Compound 20], Cc1oncc1C(=O)Nc1ccc(C(C)C)cc1N1CCN(c2cnccn2)CC1 [Compound 27] is 22-fold higher in IC50: 0.58 µM for the first, 13 µM for the second. The first is the more potent here.

Compared with CC(C)c1ccc(NC(=O)c2cccnc2)c(N2CCN(c3nccs3)CC2)c1 [Compound 47], CC(C)c1ccc(NC(=O)c2cccnc2)c(N2CCN(c3ccccn3)CC2)c1 [Compound 51] is 2.9-fold higher in IC50: 2.5 µM for the first, 7.3 µM for the second. The first is the more potent here.

Compared with Cc1c(F)cc(F)cc1C(=O)Nc1ccc(C(C)C)cc1N1CCN(c2cnccn2)CC1 [Compound 14], Cc1c(F)cccc1C(=O)Nc1ccc(C(C)C)cc1N1CCN(c2cnccn2)CC1 [Compound 13] is 7.6-fold higher in IC50: 0.54 µM for the first, 4.1 µM for the second.

First: CC(C)c1ccc(NC(=O)C2CCOCC2)c(N2CCN(c3cnccn3)CC2)c1 [Compound 31]
Second: Cc1occc1C(=O)Nc1ccc(C(C)C)cc1N1CCN(c2cnccn2)CC1 [Compound 29]
The IC50 of the first is higher: > 20 µM for the first, 15 µM for the second. The second is the more potent here.

Compared with Cc1ncccc1C(=O)Nc1ccc(C(C)C)cc1N1CCN(c2cncc(-c3ccccc3)n2)CC1 [Compound 62], CC(C)c1ccc(NC(=O)c2cccnc2-c2ccccc2)c(N2CCN(c3cnccn3)CC2)c1 [Compound 5] is higher in IC50: 17 µM for the first, > 200 µM for the second.

C=C(C)c1ccc(NC(=O)c2cccnc2)c(N2CCN(c3cnccn3)CC2)c1 [Compound 64] and CCOC(=O)c1ccc(NC(=O)c2cccnc2)c(N2CCN(c3cnccn3)CC2)c1 [Compound 69] cannot be ordered by IC50: 7 µM for the first, > 5 µM for the second.

CC(C)c1ccc(NC(=O)c2cccnc2)c(N2CCN(S(C)(=O)=O)CC2)c1 [Compound 54] and CC(C)c1ccc(NC(=O)c2cccnc2)c(N2CCN(C(=O)OC(C)(C)C)CC2)c1 [Compound 53] cannot be ordered by IC50: > 200 µM for the first, > 200 µM for the second.

First: C=C(C)c1ncccc1C(=O)Nc1ccc(C(C)C)cc1N1CCN(c2cnccn2)CC1 [Compound 4]
Second: CC(C)c1ccc(NC(=O)c2cccc(O)n2)c(N2CCN(c3cnccn3)CC2)c1 [Compound 9]
The IC50 of the first is higher: > 200 µM for the first, 46 µM for the second.

Compared with CC(C)c1ccc(NC(=O)c2ccnc(NC(=O)C(C)(C)C)c2)c(N2CCN(c3cnccn3)CC2)c1 [Compound 37], CC(C)c1ccc(NC(=O)c2ccsc2)c(N2CCN(c3cnccn3)CC2)c1 [Compound 23] is lower in IC50: > 20 µM for the first, 7 µM for the second. The second is the more potent here.

First: CC(C)c1ccc(NC(=O)c2cccnc2)c(N2CCN(C(=O)Nc3ccccc3)CC2)c1 [Compound 52]
Second: Cc1nccnc1N1CCN(c2cc(C(C)C)ccc2NC(=O)c2cccnc2)CC1 [Compound 45]
The IC50 of the first is higher: > 100 µM for the first, 3.9 µM for the second.

Cc1cnc(C(=O)Nc2ccc(C(C)C)cc2N2CCN(c3cnccn3)CC2)cn1 [Compound 36] and Cc1cnc(C)c(N2CCN(c3cc(C(C)C)ccc3NC(=O)c3cccnc3)CC2)n1 [Compound 46] cannot be ordered by IC50: > 20 µM for the first, 140 µM for the second.
